Assay results as given in US20250186437A1, “CARBOLINE COMPOUNDS AND USE THEREOF” (PTC Therapeutics, Inc., priority 2021, published 2025).

test system: MOLM-13 cells; assay: MOLM-13 Cell Proliferation Assay (indicator of DHODH inhibition); type: cell-based; conditions: Homo sapiens, 72 Hours of culture, CellTiter-Glo, no uridine
Protocol: The following assay was conducted to measure proliferation of MOLM-13 cells in the presence of each compound studied. This assay was included as an indicator of DHODH inhibition, as growth of MOLM-13 cells is known to depend on synthesis of pyrimidines using the de novo pathway, which can be blocked by inhibition of DHODH. • 1. MOLM-13 cells were cultured in RPMI 1640 medium+10% Fetal Bovine Serum (FBS). Only low passage cells (<20) were used for the compound tests • 2. On day 1, Log-phase growing Molm-13 Cells were counted and diluted to 10^5 cells/mL in RPMI 1640 medium+10% FBS • 3. 100 μL of diluted MOLM-13 cells in 96 well white plates were seeded, for a final density of 10^4 cells/well. • 4. 0.5 μL of pre-diluted 200× compounds or DMSO control was added to each well. The final DMSO concentration was 0.5%. • 5. After 72 Hours of culture at 37° C., 5% CO2, the plates were taken out and cooled to RT, then 50 μL CellTiter-Glo® (Promega) was added, and the composition was mixed at RT for 10 minutes. • 6. The plates were then read by ViewLux (Speed-fast, Gain-High, Bining-1X, 5 seconds).

| Compound | IC50 |
| --- | --- |
| Fc1ccc(C2c3[nH]c4ccc(Cl)cc4c3CCN2c2ncc(Cl)cn2)cc1 (stereo not shown) [Compound 1, 6-chloro-2-(5-chloropyrimidin-2-yl)-1-(4-fluorophenyl)-2,3,4,9-tetrahydro-1H-pyrido[3,4-b]indole] | 31.8 nM |
| Cc1cnc(N2CCc3c([nH]c4ccc(Cl)cc34)C2c2ccc(F)cc2)nc1 (stereo not shown) [Compound 2, 6-chloro-1-(4-fluorophenyl)-2-(5-methylpyrimidin-2-yl)-2,3,4,9-tetrahydro-1H-pyrido[3,4-b]indole] | 60.6 nM |
| Fc1ccc(C2c3[nH]c4ccc(Cl)cc4c3CCN2c2ncc(F)cn2)cc1 (stereo not shown) [Compound 3, 6-chloro-1-(4-fluorophenyl)-2-(5-fluoropyrimidin-2-yl)-2,3,4,9-tetrahydro-1H-pyrido[3,4-b]indole] | 29.6 nM |
| Fc1ccc(C2c3[nH]c4cc(F)c(Cl)cc4c3CCN2c2ncc(Cl)cn2)cc1 (stereo not shown) [Compound 4, 6-chloro-2-(5-chloropyrimidin-2-yl)-7-fluoro-1-(4-fluorophenyl)-2,3,4,9-tetrahydro-1H-pyrido[3,4-b]indole] | 59.7 nM |
| Fc1ccc(C2c3[nH]c4cc(F)c(Cl)cc4c3CCN2c2ncc(F)cn2)cc1 (stereo not shown) [Compound 5, 6-chloro-7-fluoro-1-(4-fluorophenyl)-2-(5-fluoropyrimidin-2-yl)-2,3,4,9-tetrahydro-1H-pyrido[3,4-b]indole] | 67.9 nM |
| Cc1ccc(C2c3[nH]c4cc(F)c(Cl)cc4c3CCN2c2ncc(F)cn2)cc1 (stereo not shown) [Compound 6, 6-chloro-7-fluoro-2-(5-fluoropyrimidin-2-yl)-1-(4-methylphenyl)-2,3,4,9-tetrahydro-1H-pyrido[3,4-b]indole] | 37.6 nM |
| Cc1ccc(C2c3[nH]c4ccc(Cl)cc4c3CCN2c2nc(Cl)cc(Cl)n2)cc1 (stereo not shown) [Compound 7, 6-chloro-2-(4,6-dichloropyrimidin-2-yl)-1-(4-methylphenyl)-2,3,4,9-tetrahydro-1H-pyrido[3,4-b]indole] | 0.6 nM |
| COc1ccc(C2c3[nH]c4cc(F)c(Cl)cc4c3CCN2c2ncc(F)cn2)cn1 (stereo not shown) [Compound 8, 6-chloro-7-fluoro-2-(5-fluoropyrimidin-2-yl)-1-(6-methoxypyridin-3-yl)-2,3,4,9-tetrahydro-1H-pyrido[3,4-b]indole] | 34.8 nM |
| Cc1ccnc(N2CCc3c([nH]c4cc(F)c(Cl)cc34)C2c2ccc(F)cc2)n1 (stereo not shown) [Compound 9, 6-chloro-7-fluoro-1-(4-fluorophenyl)-2-(4-methylpyrimidin-2-yl)-2,3,4,9-tetrahydro-1H-pyrido[3,4-b]indole] | 35.9 nM |
| Cc1ccc(C2c3[nH]c4ccc(Cl)cc4c3CCN2c2nccc(Cl)n2)cc1 (stereo not shown) [Compound 10, 6-chloro-2-(4-chloropyrimidin-2-yl)-1-(4-methylphenyl)-2,3,4,9-tetrahydro-1H-pyrido[3,4-b]indole] | 4.1 nM |
| Fc1cnc(N2CCc3c([nH]c4cc(F)c(Cl)cc34)C2c2ccc(Cl)cc2)nc1 (stereo not shown) [Compound 11, 6-chloro-1-(4-chlorophenyl)-7-fluoro-2-(5-fluoropyrimidin-2-yl)-2,3,4,9-tetrahydro-1H-pyrido[3,4-b]indole] | 35.4 nM |
| Fc1cnc(N2CCc3c([nH]c4cc(F)c(Cl)cc34)C2c2ccc(F)cc2F)nc1 (stereo not shown) [Compound 12, 6-chloro-1-(2,4-difluorophenyl)-7-fluoro-2-(5-fluoropyrimidin-2-yl)-2,3,4,9-tetrahydro-1H-pyrido[3,4-b]indole] | 35.8 nM |
| Fc1ccc(C2c3[nH]c4ccc(Cl)cc4c3CCN2c2nccc(Cl)n2)cc1 (stereo not shown) [Compound 13, 6-chloro-2-(4-chloropyrimidin-2-yl)-1-(4-fluorophenyl)-2,3,4,9-tetrahydro-1H-pyrido[3,4-b]indole] | 12.4 nM |
| CN(C)c1ncc(C2c3[nH]c4cc(F)c(Cl)cc4c3CCN2c2ncc(F)cn2)cn1 (stereo not shown) [Compound 14, 5-[6-chloro-7-fluoro-2-(5-fluoropyrimidin-2-yl)-2,3,4,9-tetrahydro-1H-pyrido[3,4-b]indol-1-yl]-N,N-dimethylpyrimidin-2-amine] | 30.2 nM |
| Fc1ccc(C2c3[nH]c4cc(F)c(Cl)cc4c3CCN2c2nccc(Cl)n2)cc1 (stereo not shown) [Compound 15, 6-chloro-2-(4-chloropyrimidin-2-yl)-7-fluoro-1-(4-fluorophenyl)-2,3,4,9-tetrahydro-1H-pyrido[3,4-b]indole] | 32.6 nM |
| Cc1ccc(C2c3[nH]c4cc(F)c(Cl)cc4c3CCN2c2nc(Cl)cc(Cl)n2)cc1 (stereo not shown) [Compound 16, 6-chloro-2-(4,6-dichloropyrimidin-2-yl)-7-fluoro-1-(4-methylphenyl)-2,3,4,9-tetrahydro-1H-pyrido[3,4-b]indole] | 1.8 nM |
| N#Cc1ccc(C2c3[nH]c4cc(F)c(Cl)cc4c3CCN2c2nccc(Cl)n2)cc1 (stereo not shown) [Compound 18, 4-[6-chloro-2-(4-chloropyrimidin-2-yl)-7-fluoro-2,3,4,9-tetrahydro-1H-pyrido[3,4-b]indol-1-yl]benzonitrile] | 13.5 nM |
| Cc1cc(C)nc(N2CCc3c([nH]c4cc(F)c(Cl)cc34)C2c2ccc(F)cc2)n1 (stereo not shown) [Compound 19, 6-chloro-2-(4,6-dimethylpyrimidin-2-yl)-7-fluoro-1-(4-fluorophenyl)-2,3,4,9-tetrahydro-1H-pyrido[3,4-b]indole] | 26.3 nM |
| Cc1ccc(C2c3[nH]c4ccc(Cl)c(F)c4c3CCN2c2ncc(F)cn2)cc1 (stereo not shown) [Compound 20, 6-chloro-5-fluoro-2-(5-fluoropyrimidin-2-yl)-1-(4-methylphenyl)-2,3,4,9-tetrahydro-1H-pyrido[3,4-b]indole] | 12.9 nM |
| Cc1ccc(C2c3[nH]c4ccc(Cl)c(F)c4c3CCN2c2ncc(Cl)cn2)cc1 (stereo not shown) [Compound 21, 6-chloro-2-(5-chloropyrimidin-2-yl)-5-fluoro-1-(4-methylphenyl)-2,3,4,9-tetrahydro-1H-pyrido[3,4-b]indole] | 9.8 nM |
| CCc1ccnc(N2CCc3c([nH]c4cc(F)c(Cl)cc34)C2c2ccc(F)cc2)n1 (stereo not shown) [Compound 22, 6-chloro-2-(4-ethylpyrimidin-2-yl)-7-fluoro-1-(4-fluorophenyl)-2,3,4,9-tetrahydro-1H-pyrido[3,4-b]indole] | 57.8 nM |
| CC(C)c1ccnc(N2CCc3c([nH]c4cc(F)c(Cl)cc34)C2c2ccc(F)cc2)n1 (stereo not shown) [Compound 23, 6-chloro-7-fluoro-1-(4-fluorophenyl)-2-[4-(propan-2-yl)pyrimidin-2-yl]-2,3,4,9-tetrahydro-1H-pyrido[3,4-b]indole] | 45.4 nM |
| Fc1ccc(C2c3[nH]c4cc(F)c(Cl)cc4c3CCN2c2nccc(C(F)(F)F)n2)cc1 (stereo not shown) [Compound 24, 6-chloro-7-fluoro-1-(4-fluorophenyl)-2-[4-(trifluoromethyl)pyrimidin-2-yl]-2,3,4,9-tetrahydro-1H-pyrido[3,4-b]indole] | 17.6 nM |
| N#Cc1ccnc(N2CCc3c([nH]c4cc(F)c(Cl)cc34)C2c2ccc(F)cc2)n1 (stereo not shown) [Compound 25, 2-[6-chloro-7-fluoro-1-(4-fluorophenyl)-1,3,4,9-tetrahydro-2H-pyrido[3,4-b]indol-2-yl]pyrimidine-4-carbonitrile] | 51.4 nM |
| Fc1cnc(N2CCc3c([nH]c4ccc(Cl)c(F)c34)C2c2ccc(Cl)cc2)nc1 (stereo not shown) [Compound 26, 6-chloro-1-(4-chlorophenyl)-5-fluoro-2-(5-fluoropyrimidin-2-yl)-2,3,4,9-tetrahydro-1H-pyrido[3,4-b]indole] | 18.9 nM |
